According to ChEMBL document CHEMBL1143443, “Discovery of (naphthalen-4-yl)(phenyl)methanones and N-methyl-N-phenylnaphthalen-1-amines as new apoptosis inducers using a cell- and caspase-based HTS assay” (Bioorg Med Chem Lett, 2008):

What was measured:
[1] = test system: HCT-116; assay: Induction of apoptosis in human HCT116 cells assessed as caspase activation by HTS assay; format: functional, cell-based
[2] = test system: T47D; assay: Induction of apoptosis in human T47D cells assessed as caspase activation by HTS assay; format: functional, cell-based
[3] = test system: SNU-398; assay: Induction of apoptosis in human SNU398 cells assessed as caspase activation by HTS assay; format: functional, cell-based
[4] = test system: SNU-398; assay: Cytotoxicity against human SNU398 cells; format: functional
[5] = test system: HCT-116; assay: Cytotoxicity against human HCT116 cells; format: functional
[6] = test system: HCT-116; assay: Cell cycle arrest in human HCT116 cells assessed as increase in subG1 phase population at 100 nM after 48 hrs by flow cytometry; format: functional
[7] = test system: T47D; assay: Cytotoxicity against human T47D cells; format: functional
[8] = test system: HCT-116; assay: Cell cycle arrest in human HCT116 cells assessed as increase in G2/M phase population at 100 nM after 24 hrs by flow cytometry; format: functional
[9] = test system: HCT-116; assay: Cell cycle arrest in human HCT116 cells assessed as increase in subG1 phase population at 100 nM after 24 hrs by flow cytometry; format: functional

Structure (SMILES) | EC50 [1] [nM] | EC50 [2] [nM] | EC50 [3] [nM] | GI50 [4] [nM] | GI50 [5] [nM] | Activity [6] [%] | GI50 [7] [nM] | Activity [8] [%] | Activity [9] [%]
COc1ccc(C(=O)c2ccc(N(C)C)cc2)c2ccccc12 | 1200 | 810 | 980 |  |  |  |  |  | 
COc1cccc(N(C)c2ccc(N(C)C)c3ccccc23)c1 | 4600 | 4400 | 4700 |  |  |  |  |  | 
CN(C)c1ccc(C(=O)c2ccc(N(C)C)c3ccccc23)cc1 | 49 | 37 | 44 | 27 | 68 | 53 | 34 | 12 | 4
COc1ccc(C(O)c2ccc(N(C)C)c3ccccc23)cc1 (stereo not given) | 260 | 140 | 170 | 170 | 490 |  | 230 |  | 
COc1ccc(C(=O)c2ccc([N+](=O)[O-])cc2)c2ccccc12 | > 10000 | > 10000 | > 10000 |  |  |  |  |  | 
CN(C)c1ccc(C(O)c2ccc(N(C)C)c3ccccc23)cc1 (stereo not given) | 490 | 380 | 520 |  |  |  |  |  | 
COc1ccc(C(=O)c2ccc(N(C)C)c3ccccc23)cc1 | 86 | 72 | 74 | 27 | 100 |  | 39 |  | 
COc1ccc(N(C)c2ccc(N)c3ccccc23)cc1 | 11000 | 12000 | 5300 |  |  |  |  |  | 
COc1cc(OC)cc(C(=O)c2ccc(N(C)C)c3ccccc23)c1 | 1900 | 1300 | 1500 |  |  |  |  |  | 
COc1cccc(C(=O)c2ccc(N(C)C)c3ccccc23)c1 | 5100 | 2600 | 3500 |  |  |  |  |  | 
COc1ccc(N(C)c2ccc(N(C)C)c3ccccc23)cc1 | 610 | 510 | 720 | 150 | 320 |  | 260 |  | 
COc1cc(C(=O)c2ccc(N(C)C)c3ccccc23)cc(OC)c1OC | 1200 | 420 | 570 |  |  |  |  |  | 
COc1ccc(N(C)c2ccc([N+](=O)[O-])c3ccccc23)cc1 | 280 | 240 | 330 |  |  |  |  |  | 
COc1ccc(C(OC)c2ccc(N(C)C)c3ccccc23)cc1 (stereo not given) | 620 | 590 | 760 |  |  |  |  |  | 
COc1ccc(C(=O)c2ccc(N(C)C)c3ccccc23)cc1OC | 650 | 470 | 560 |  |  |  |  |  | 
